In PMC11952222, “Development and comparison of single FLT3-inhibitors to dual FLT3/TAF1-inhibitors as an anti-leukemic approach” (PLOS One, 2025):
“And” between values parts separate entries of the source, which are not always exact repeats. Equal entries are not always repeated. Where two headings read alike, the source gives them in different places.

What was measured:
FLT3_autoinhibited = biological target: T1, FLT3_autoinhibited (Homo sapiens, UniProt P36888); assay: Eurofins/DiscoverX cell free kinase assay, percent control; format: binding; conditions: for per_control_1000nM FLT3_autoinhibited: 1000 nM compound; for per_control_10000nM FLT3_autoinhibited: 10000 nM compound
T1 construct: purchased Eurofins/DiscoverX
T1 sequence (P36888 564-993 limits assumed): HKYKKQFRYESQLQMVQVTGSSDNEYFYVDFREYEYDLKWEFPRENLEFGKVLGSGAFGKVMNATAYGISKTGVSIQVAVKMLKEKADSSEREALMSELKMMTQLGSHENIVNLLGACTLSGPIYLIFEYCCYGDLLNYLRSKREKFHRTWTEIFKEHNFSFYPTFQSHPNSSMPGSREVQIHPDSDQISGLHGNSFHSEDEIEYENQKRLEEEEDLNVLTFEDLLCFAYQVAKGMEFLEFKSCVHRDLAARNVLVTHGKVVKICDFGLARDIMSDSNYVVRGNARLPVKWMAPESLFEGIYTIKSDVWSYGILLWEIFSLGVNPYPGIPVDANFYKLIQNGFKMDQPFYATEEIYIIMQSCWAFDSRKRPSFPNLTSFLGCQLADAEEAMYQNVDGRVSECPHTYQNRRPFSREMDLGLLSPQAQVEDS
Procedure: (§1) The 3i-compounds underwent activity testing against a panel of 32 bromodomains using the Eurofins/DiscoverX bromoMAX assay, with specific focus on TAF1(2) bromodomain assessed by the KdELECT assay. In a similar manner, kinase activity was evaluated using a panel of 97 kinase proteins using the Eurofins/DiscoverX scanELECT and KdELECT assays, with specific focus on FLT3 protein. An 11-point 3-fold serial dilution of each test compound was prepared in 100% DMSO at 100x final test concentration and subsequently diluted to final concentration (DMSO 1%). […] Percent control was calculated using the following formula: ((test compound signal – positive control signal)/ (negative control signal – positive control signal)) × 100.
(§2) Fig 2 Results of 3i-compound series at concentrations of 1 µM and 10 µM in a cell free Eurofins/DiscoverX assay for kinase and bromodomain proteins. (A) Single-targeted compounds with tyrosine kinase activity but without bromodomain activity. (B) Dual-targeted compounds with both tyrosine kinase and bromodomain activity.

FLT3(D835V) = biological target: T2, FLT3(D835V) (Homo sapiens, UniProt P36888, D835V); assay: as above; format: binding; conditions: for per_control_1000nM FLT3(D835V): 1000 nM compound; for per_control_10000nM FLT3(D835V): 10000 nM compound
T2 construct: purchased Eurofins/DiscoverX
T2 sequence (P36888 27-993 D835V): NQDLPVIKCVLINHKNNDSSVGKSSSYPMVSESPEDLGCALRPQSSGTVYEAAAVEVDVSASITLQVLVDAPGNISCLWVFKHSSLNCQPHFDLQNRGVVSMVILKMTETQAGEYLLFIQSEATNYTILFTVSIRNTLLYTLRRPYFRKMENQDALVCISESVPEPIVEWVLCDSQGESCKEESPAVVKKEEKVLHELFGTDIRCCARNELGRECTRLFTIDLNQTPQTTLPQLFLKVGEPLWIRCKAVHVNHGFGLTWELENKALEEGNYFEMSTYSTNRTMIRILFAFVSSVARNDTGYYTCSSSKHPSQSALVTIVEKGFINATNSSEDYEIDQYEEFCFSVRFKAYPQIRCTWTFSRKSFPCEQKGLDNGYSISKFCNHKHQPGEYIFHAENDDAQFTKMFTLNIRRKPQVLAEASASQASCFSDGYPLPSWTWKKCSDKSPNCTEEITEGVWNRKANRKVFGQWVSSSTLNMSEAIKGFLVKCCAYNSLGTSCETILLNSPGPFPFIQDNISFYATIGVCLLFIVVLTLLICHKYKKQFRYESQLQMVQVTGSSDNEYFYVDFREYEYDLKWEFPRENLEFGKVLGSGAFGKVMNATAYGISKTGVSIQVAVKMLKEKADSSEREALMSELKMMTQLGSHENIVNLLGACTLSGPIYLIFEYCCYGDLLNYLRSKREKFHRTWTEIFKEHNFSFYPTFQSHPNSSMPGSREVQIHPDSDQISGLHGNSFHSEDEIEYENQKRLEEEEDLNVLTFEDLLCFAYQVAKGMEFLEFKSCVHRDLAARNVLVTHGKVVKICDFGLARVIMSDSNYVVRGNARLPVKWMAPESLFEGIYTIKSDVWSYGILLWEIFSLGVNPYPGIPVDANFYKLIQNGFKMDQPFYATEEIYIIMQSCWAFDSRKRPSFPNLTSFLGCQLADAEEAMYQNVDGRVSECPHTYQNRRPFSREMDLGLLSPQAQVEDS
Procedure: as §1, §2

HDQP1 cells = assay: Cell viability, CellTiter Glo, HDQP1; format: cell-based
Procedure: Drug sensitivity and resistance testing in MOLM13, DU4475, HDQP1, and IGROV1 cells was conducted at the Finnish Institute for Molecular Medicine (FIMM), University of Helsinki. In brief, the effects of compounds on cell viability and cell death were quantified with Cell-Titer Glo (Promega) and CellTox Green (Promega), respectively. Compounds or vehicle control were included in cell culture medium at described concentrations for 72h using an automated liquid dispenser in 384-well format. For KASUMI-1 experiments, cells were grown in 96-well plates and similarly incubated with compounds at indicated concentrations for 72h in RPMI + 10% FCS + Gentamicin, followed by lysis and quantification of cell viability with Cell-Titer Glo (Promega).
Raw values from viability and toxicity assays were normalized to DMSO and plotted to heat maps in R using pheatmap (RRID:SCR_016418). Dose-response curves were generated using the drc package in R [40]. In brief, nonlinear modelling was performed to calculate IC50 values for each compound where possible and resulting curves from drc and experimental values were plotted using ggplot2 (RRID:SCR_014601).

[1] = 72h, one independent experiment per value, read-out: HDQP1 IC50, individual dose-response curve (CellTiter Glo)
[2] = 72h, mean of n = 3 independent experiments, read-out: HDQP1 IC50 (CellTiter Glo)
[3] = Homo sapiens, HDQ-P1, 72 h, one independent experiment per value, read-out: HDQP1 IC50, individual dose-response curve (CellTiter Glo)

COc1ccc(-c2cc(NC(=O)c3ccc(C(C)(C)C)cc3)[nH]n2)cc1 [Compound 3i-1103]
per_control_1000nM FLT3_autoinhibited (FLT3_autoinhibited): 1.8 percent control | per_control_10000nM FLT3_autoinhibited (FLT3_autoinhibited): 0.4 percent control | per_control_1000nM FLT3(D835V) (FLT3(D835V)): 0.9 percent control | per_control_10000nM FLT3(D835V) (FLT3(D835V)): 0 percent control

CC(C)(C)c1ccc(C(=O)Nc2cc(-c3ccccc3)n[nH]2)cc1 [Compound 3i-1247, 4-(tert-butyl)-N-(3-phenyl-1H-pyrazol-5-yl)benzamide]
IC50 (HDQP1 cells; [1]): > 30 µM | per_control_1000nM FLT3_autoinhibited (FLT3_autoinhibited): 1.1 percent control | per_control_10000nM FLT3_autoinhibited (FLT3_autoinhibited): 0 percent control | per_control_1000nM FLT3(D835V) (FLT3(D835V)): 2.5 percent control | per_control_10000nM FLT3(D835V) (FLT3(D835V)): 0 percent control

Cn1cc(-c2cc(NC(=O)c3ccc(C(C)(C)C)cc3)n[nH]2)ccc1=O [Compound 3i-1248, 4-(tert-butyl)-N-(5-(1-methyl-6-oxo-1,6-dihydropyridin-3-yl)-1H-pyrazol-3-yl)benzamide]
IC50 (HDQP1 cells; 72h, mean of n = 3 independent experiments, listed as 1248, read-out: HDQP1 IC50 (CellTiter Glo)): 20.7 µM | IC50 (HDQP1 cells; [2]): > 10 µM | IC50 (HDQP1 cells; [1]): 21.1 µM and 22.1 µM | IC50 (HDQP1 cells; [3]): 18.8 µM | per_control_1000nM FLT3_autoinhibited (FLT3_autoinhibited): 63 percent control | per_control_10000nM FLT3_autoinhibited (FLT3_autoinhibited): 12 percent control | per_control_1000nM FLT3(D835V) (FLT3(D835V)): 1.3 percent control | per_control_10000nM FLT3(D835V) (FLT3(D835V)): 0.7 percent control

Cc1cc(-c2cc(NC(=O)c3ccc(C(C)(C)C)cc3)[nH]n2)ccn1 [Compound 3i-1246, 4-(tert-butyl)-N-(3-(2-methylpyridin-4-yl)-1H-pyrazol-5-yl)benzamide]
IC50 (HDQP1 cells; [2]): > 10 µM | IC50 (HDQP1 cells; [1]): 10.5 µM and 19.5 µM | IC50 (HDQP1 cells; Homo sapiens, HDQ-P1, 72 h, mean of n = 3 independent experiments, read-out: HDQP1 IC50 (CellTiter Glo)): 13.4 µM | IC50 (HDQP1 cells; [3]): 10.1 µM | per_control_1000nM FLT3_autoinhibited (FLT3_autoinhibited): 0 percent control | per_control_10000nM FLT3_autoinhibited (FLT3_autoinhibited): 1 percent control | per_control_1000nM FLT3(D835V) (FLT3(D835V)): 0.5 percent control | per_control_10000nM FLT3(D835V) (FLT3(D835V)): 0.55 percent control
